≈ marks a conversion by molar mass, not a printed value. Where “and” joins values, the source holds several entries; their conditions need not be identical. Equal entries are not always repeated. Structures can show the parent of a compound that is named as a salt. Where two headings read alike, the source gives them in different places.
Tests used:
M. tuberculosis H37Rv [1] = test: MIC determination (extracellular, resazurin); assay type: cell-based, Mycobacterium tuberculosis
[2] = test system: Mycobacterium tuberculosis growing inside human THP-1 monocytes; test: Intracellular viability assay (luciferase Mtb in THP-1 monocytes); assay type: cell-based
M. tuberculosis H37Rv [3] = test: In vivo anti-tubercular activity in DHP-1 KO mice; parameters: species or system Mycobacterium tuberculosis; conditions: 129sv DHP-1 KO mice; for Lung CFU: intratracheal infection, twice a day from day 9 to day 14, lungs day 15, mean, untreated 7.4 (Day 9), 9.0 (Day 15); for Effect on bacterial growth in lung: treated day 9 to day 14
[4] = test system: panel of twenty-three M. tuberculosis strains; test: microbe, parasite or virus in culture; assay type: cell-based, Mycobacterium tuberculosis; conditions: for MIC: Mycobacterium tuberculosis
M. tuberculosis H37Rv [5] = test: Checkerboard combination with amoxicillin and/or clavulanate (resazurin); assay type: cell-based, Mycobacterium tuberculosis
Mtb H37Rv strain = test: Checkerboard assay with rifampicin, ethambutol, delamanid and amoxicillin (384-well, MTT or ATP); assay type: cell-based, Mycobacterium tuberculosis; conditions: for FIC_B / MICsyn_B: Comp B in the presence of SFT; for Fold_B: MIC/MICsyn of Comp B with SFT; for MIC: Mycobacterium tuberculosis, H37RV, Comp B alone (IC90)
[6] = Mycobacterium tuberculosis, w/o clav, average, read-out: MIC50 μM (average w/o clav)
[7] = Mycobacterium tuberculosis, w/o clav, average, read-out: MIC90 μM (average w/o clav)
[8] = Mycobacterium tuberculosis, w/o clav, separate readings, read-out: MIC50 μM (w/o clav)
[9] = Mycobacterium tuberculosis, with clav, average, read-out: MIC50 μM (average with clav)
[10] = Mycobacterium tuberculosis, with clav, average, read-out: MIC90 μM (average with clav)
[11] = Mycobacterium tuberculosis, with clav, separate readings, read-out: MIC90 μM (with clav)
[12] = w/o clav, separate readings, read-out: MIC50 μM (w/o clav)
[13] = with clav, separate readings, read-out: MIC90 μM (with clav)
[14] = Mycobacterium tuberculosis, H37RV
[15] = Mycobacterium tuberculosis, H37RV, extracellular, with 4 μg/ml potassium clavulanate, average, read-out: MIC μM (average with clav)
[16] = Mycobacterium tuberculosis, H37RV, extracellular, without clavulanate, average, read-out: MIC μM (average w/o clav)
[17] = Mycobacterium tuberculosis, w/o clav, separate readings, read-out: MIC90 μM (w/o clav)
[18] = Mycobacterium tuberculosis, with clav, separate readings, read-out: MIC50 μM (with clav)
[19] = w/o clav, separate readings, read-out: MIC90 μM (w/o clav)
[20] = with clav, separate readings, read-out: MIC50 μM (with clav)
[21] = Mycobacterium tuberculosis, H37RV, extracellular, with 4 μg/ml potassium clavulanate, separate readings, read-out: MIC μM (with clav)
[22] = Mycobacterium tuberculosis, H37RV, extracellular, without clavulanate, separate readings, read-out: MIC μM (w/o clav)

CO[C@H]1CCC[C@H]2C1=C(C(=O)O)N1C(=O)[C@H]([C@@H](C)O)[C@@H]21 [Sanfetrinem (sodium salt), sodium (1S,5S,8aS,8bR)-1-((R)-1-hydroxyethyl)-5-methoxy-2-oxo-1,2,5,6,7,8,8a,8b-octahydroazeto[2,1-a]isoindole-4-carboxylate]
MIC (M. tuberculosis H37Rv [1]; Mycobacterium tuberculosis, H37RV, read-out: MIC μM (average w/o clav), extracellular, without clavulanate, average): 5 µM | MIC (M. tuberculosis H37Rv [1]; Mycobacterium tuberculosis, H37RV, read-out: MIC μM (average with clav), extracellular, with 4 μg/ml potassium clavulanate, average): 2.9 µM | MIC50 [2, 6]: 1.65 µM | MIC90 [2, 7]: 5.57 µM | MIC50 [2, 8]: 1.32 µM | MIC50 [2, 9]: 1.64 µM | MIC90 [2, 10]: 7.25 µM | MIC90 [2, 11]: 6.13 µM | MIC50 [2, 12]: 1.64 µM and 2 µM | MIC90 [2, 13]: 6.8 µM and 8.82 µM | Lung CFU (M. tuberculosis H37Rv [3]): 7.3 log CFU | Effect on bacterial growth in lung (M. tuberculosis H37Rv [3]): preventing bacterial growth | Sensitivity of all strains within the concentration range tested ([4]; MGIT 960, 23 strains, 0.5 to 20 μM): sensitive | MIC ([4]; read-out: MIC, another four strains higher): > 5 µM | MIC ([4]; read-out: MIC, four strains lower): < 5 µM | MIC ([4]; read-out: MIC, most common value): 5 µM | IC90 (M. tuberculosis H37Rv [5]; [14]): 1.22 µg/mL | IC90 (M. tuberculosis H37Rv [5]; Mycobacterium tuberculosis, H37RV, read-out: IC90 of sanfetrinem in combination with amoxicillin (at 10 μg/ml)): 0.33 µg/mL | IC90 (M. tuberculosis H37Rv [5]; Mycobacterium tuberculosis, H37RV, read-out: IC90 of sanfetrinem in combination with clavulanate): 0.55 µg/mL | Fold_A (Mtb H37Rv strain; MIC/MICsyn of SFT with AMX): 8 | Fold_A (Mtb H37Rv strain; MIC/MICsyn of SFT with DLD): 4 | Fold_A (Mtb H37Rv strain; MIC/MICsyn of SFT with EMB): 4 | Fold_A (Mtb H37Rv strain; MIC/MICsyn of SFT with RIF): 8 | FIC_A (Mtb H37Rv strain; SFT in the presence of AMX): 0.125 | MICsyn_A (Mtb H37Rv strain; SFT in the presence of AMX): 0.5 µM | FIC_A (Mtb H37Rv strain; SFT in the presence of DLD): 0.25 | MICsyn_A (Mtb H37Rv strain; SFT in the presence of DLD): 0.4 µM | FIC_A (Mtb H37Rv strain; SFT in the presence of EMB): 0.25 | MICsyn_A (Mtb H37Rv strain; SFT in the presence of EMB): 0.4 µM | FIC_A (Mtb H37Rv strain; SFT in the presence of RIF): 0.125 | MICsyn_A (Mtb H37Rv strain; SFT in the presence of RIF): 0.4 µM | FICI (Mtb H37Rv strain; combination SFT with AMX): 0.1875 | FICI (Mtb H37Rv strain; combination SFT with DLD): 0.5 | FICI (Mtb H37Rv strain; combination SFT with EMB): 0.5 | FICI (Mtb H37Rv strain; combination SFT with RIF): 0.25

C[C@]1(COc2ccc(N3CCC(Oc4ccc(OC(F)(F)F)cc4)CC3)cc2)Cn2cc([N+](=O)[O-])nc2O1 [DLD, Delamanid]
FIC_B (Mtb H37Rv strain): 0.25 | MICsyn_B (Mtb H37Rv strain): 0.0025 µM | Fold_B (Mtb H37Rv strain): 4 | MIC (Mtb H37Rv strain): 0.01 µM

C[C@@H](O)[C@H]1C(=O)N2C(C(=O)O)=C(S[C@@H]3CN[C@H](C(=O)N(C)C)C3)[C@H](C)[C@H]12 [Meropenem]
MIC (M. tuberculosis H37Rv [1]; [15]): 6.9 µM | MIC (M. tuberculosis H37Rv [1]; [16]): 31.7 µM | MIC50 [2, 6]: 6.78 µM (≈ 2.6 µg/mL) | MIC90 [2, 7]: 17 µM (≈ 6.52 µg/mL) | MIC50 [2, 8]: 8.97 µM (≈ 3.44 µg/mL) | MIC90 [2, 17]: 19.6 µM (≈ 7.52 µg/mL) | MIC50 [2, 9]: 1.94 µM (≈ 0.744 µg/mL) | MIC90 [2, 10]: 5.55 µM (≈ 2.13 µg/mL) | MIC50 [2, 18]: 2.03 µM (≈ 0.778 µg/mL) | MIC90 [2, 11]: 5.39 µM (≈ 2.07 µg/mL) | MIC50 [2, 12]: 4.6 µM (≈ 1.76 µg/mL) | MIC90 [2, 19]: 14.41 µM (≈ 5.53 µg/mL) | MIC50 [2, 20]: 1.85 µM (≈ 0.709 µg/mL) | MIC90 [2, 13]: 5.71 µM (≈ 2.19 µg/mL)

C[C@@H](O)[C@H]1C(=O)N2C(C(=O)O)=C(SC3CN(C4=NCCS4)C3)[C@H](C)[C@H]12 [Tebipenem]
MIC (M. tuberculosis H37Rv [1]; [15]): 1.25 µM | MIC (M. tuberculosis H37Rv [1]; [21]): 1.25 µM | MIC (M. tuberculosis H37Rv [1]; [16]): 7.5 µM | MIC (M. tuberculosis H37Rv [1]; [22]): 7.5 µM | MIC50 [2, 6]: 4.51 µM (≈ 1.73 µg/mL) | MIC90 [2, 7]: 46.5 µM (≈ 17.8 µg/mL) | MIC50 [2, 9]: 0.49 µM (≈ 0.188 µg/mL) | MIC90 [2, 10]: 3.61 µM (≈ 1.38 µg/mL)

C[C@@H](O)[C@H]1C(=O)N2C(C(=O)O)=C([C@H]3CCCO3)S[C@H]12 [Faropenem]
MIC (M. tuberculosis H37Rv [1]; [15]): 8.9 µM | MIC (M. tuberculosis H37Rv [1]; [16]): 15.7 µM | MIC50 [2, 6]: 1.85 µM (≈ 0.528 µg/mL) | MIC90 [2, 7]: 12.3 µM (≈ 3.52 µg/mL) | MIC50 [2, 8]: 2.2 µM (≈ 0.628 µg/mL) | MIC90 [2, 17]: 14.7 µM (≈ 4.19 µg/mL) | MIC50 [2, 9]: 1.1 µM (≈ 0.314 µg/mL) | MIC90 [2, 10]: 5.75 µM (≈ 1.64 µg/mL) | MIC50 [2, 18]: 1 µM (≈ 0.285 µg/mL) | MIC90 [2, 11]: 6.8 µM (≈ 1.94 µg/mL) | MIC50 [2, 12]: 1.5 µM (≈ 0.428 µg/mL) | MIC90 [2, 19]: 10.0 µM (≈ 2.85 µg/mL) | MIC50 [2, 20]: 1.2 µM (≈ 0.342 µg/mL) | MIC90 [2, 13]: 4.7 µM (≈ 1.34 µg/mL)

CO[C@H]1/C=C/O[C@@]2(C)Oc3c(C)c(O)c4c(O)c(c(/C=N/N5CCN(C)CC5)c(O)c4c3C2=O)NC(=O)/C(C)=C\C=C\[C@H](C)[C@H](O)[C@@H](C)[C@@H](O)[C@@H](C)[C@H](OC(C)=O)[C@@H]1C [RIF, Rifampicin]
MICsyn_B (Mtb H37Rv strain): 0.005 µM | MIC (Mtb H37Rv strain): 0.04 µM

CC1(C)S[C@@H]2[C@H](NC(=O)[C@H](N)c3ccc(O)cc3)C(=O)N2[C@H]1C(=O)O [amoxicillin]
IC80 (M. tuberculosis H37Rv [5]; [14]): 42 µg/mL | Reaching 90% Inhibition (M. tuberculosis H37Rv [5]; amoxicillin in monotherapy): does not reach a 90% Inhibition | Reaching 90% growth inhibition (M. tuberculosis H37Rv [5]; in combination with clavulanate): nor in combination with clavulanate reach the 90% growth inhibition | MICsyn_B (Mtb H37Rv strain): 8 µM | MIC (Mtb H37Rv strain): 128 µM

CO[C@H]1CCC[C@H]2C1=C(C(=O)OC(C)OC(=O)OC1CCCCC1)N1C(=O)[C@H]([C@@H](C)O)[C@@H]21 (mixture of isomers) [Sanfetrinem cilexetil, (1S,5S,8aS,8bR)-1-(((cyclohexyloxy)carbonyl)oxy)ethyl 1-((R)-1-hydroxyethyl)-5-methoxy-2-oxo-1,2,5,6,7,8,8a,8b-octahydroazeto[2,1-a]isoindole-4-carboxylate]
MIC (M. tuberculosis H37Rv [1]; [15]): 8.6 µM | MIC (M. tuberculosis H37Rv [1]; [16]): 10.6 µM | MIC50 [2, 6]: 0.85 µM (≈ 0.384 µg/mL) | MIC90 [2, 7]: 5.2 µM (≈ 2.35 µg/mL) | MIC50 [2, 9]: 0.6 µM (≈ 0.271 µg/mL) | MIC90 [2, 10]: 5 µM (≈ 2.26 µg/mL) | MIC90 [2, 11]: 4.6 µM (≈ 2.08 µg/mL) | MIC90 [2, 13]: 5.3 µM (≈ 2.39 µg/mL) | Lung CFU (M. tuberculosis H37Rv [3]): 7.6 log CFU | Effect on bacterial growth in lung (M. tuberculosis H37Rv [3]): preventing bacterial growth

CC[C@@H](CO)NCCN[C@@H](CC)CO [EMB, Ethambutol]
FIC_B (Mtb H37Rv strain): 0.25 | MICsyn_B (Mtb H37Rv strain): 2 µM | Fold_B (Mtb H37Rv strain): 4 | MIC (Mtb H37Rv strain): 8 µM

O=C(O)[C@H]1/C(=C/CO)O[C@@H]2CC(=O)N21 [clavulanate, Potassium clavulanate]
Activity alone (M. tuberculosis H37Rv [5]; alone): not active

C[C@@H](O)[C@H]1C(=O)N2C(C(=O)O)=C(S[C@@H]3CN[C@H](C(=O)Nc4cccc(C(=O)O)c4)C3)[C@H](C)[C@H]12 [Ertapenem]
MIC (M. tuberculosis H37Rv [1]; [15]): 16.7 µM | MIC (M. tuberculosis H37Rv [1]; [21]): 10 µM | MIC (M. tuberculosis H37Rv [1]; [16]): > 80 µM | MIC (M. tuberculosis H37Rv [1]; [22]): 80 µM | MIC (M. tuberculosis H37Rv [1]; extracellular, with 4 μg/ml potassium clavulanate, separate readings, read-out: MIC μM (with clav)): 20 µM | MIC50 [2, 6]: 29.6 µM (≈ 14.1 µg/mL) | MIC90 [2, 7]: > 50 µM | MIC50 [2, 9]: 3.84 µM (≈ 1.83 µg/mL) | MIC90 [2, 10]: 21 µM (≈ 10 µg/mL)

— patent US11253500B2, “Sanfetrinem or a salt or ester thereof for use in treating mycobacterial infection” (priority 2017, dated 2022)
